# Assays:
# [1] = tested on: adriamycin induced nephropathy in BALB/c mice
# Protocol: Control mice were injected with 0.9% saline. At least 6 mice were analyzed per group. Mice were monitored daily for signs of pain, altered movement, or reduced food uptake and sacrificed by cervical dislocation. Tested drugs were administered per oral administration via pre-mixed chow at drug doses based on literature research.
# Urinary albumin levels were assessed by ELISA, urinary total protein and urinary creatinine levels were measured on the Roche Cobas system, using routine laboratory kits. Urinary protein/creatinine (UPCR) ratio and urinary albumin/creatinine ratio (UACR) were assessed at different time points. Weight and physical fitness scores were monitored on a daily basis. At the end of the experiment, tissue sections, plasma and urine samples were collected and stored until further analysis.
# Repeated measures ANOVA across timepoints was calculated using the R statistical software framework.
# [2] = tested on: podocytes of animals with adriamycin induced nephropathy; details: animals treated with clopidogrel as in Example 2, vs untreated adriamycin nephropathy animals
# [3] = tested on: Adriamycin nephropathy in Balb/c mice
# Protocol: Adriamycin (Doxorubicin; Sigma, D1515-10 mg) was diluted in ddH2O. To induce FSGS, a dose of 10.5 mg/kg mouse was injected i.v. into the tail vein using 27G needles, i. e. a total volume of 200 μl volume per 25 g mouse.
# For tail vein injection, mice were anaesthetized using Ketanest (Pfizer, 25 mg/ml vials) and Rompun (Bayer, 20 mg/ml injection solution). A final mix of 12.5 mg/ml Ketanest and 0.25% Rompun in 0.9% NaCl solution was prepared and 200 μl/25 g mouse were injected.
# Female Balb/c mice were obtained from the animal breeding facility of the Medical University (Abteilung kir Labortierkunde, Himberg, Austria). 12-16 weeks old animals with a weight >20 g were used for the experiments and adjusted for weight and age. Animals were allowed acclimatization of at least 7 days. Animals were marked by ear or toe clip codes to allow identification. Adriamycin nephropathy in Balb/c mice is the most commonly used animal model for preclinical FSGS studies and shares the central features with human FSGS.
# Standard commercial chow from ssniff (ssniff Spezialdiaten GmbH, Soest, Germany) contained crude protein (19%), crude fat (3.3%), crude fiber (4.9%), crude ash (6.4%), starch (36.5%), sugar (4.7%). […] All animals were allowed to eat ad libitum assuming a daily average uptake of ˜4 grams/mouse (according to animal care guideline of the Johns Hopkins University,
# Spot urine was collected every week and Creatinine and protein levels were measured.
# Urinary albumin was measured by ELISA. 96-well plates were coated over night at 4° C. with 100 μl antibody solution Anti Mouse Serum Albumin antibody (Abcam ab34807, Lot GR3242102-4; diluted 1:2,000) in coating buffer (3.7 g NaHCO3; 0,64 g Na2CO3; 1L distilled water). The remaining procedure was performed at room temperature. Wells were washed 3× with HBSS (Sigma H8264-500 ML) +0,05% Tween-20 (Bio-Rad, #1706531) and blocked in ELISA/ELISPOT Diluent (eBioscience, 00-4202-56) and washed again for 3×. Samples and standard curve were both diluted in ELISA/ELISPOT diluent were incubated for 2 h, followed by 3 wash steps with HBSS+0,05% Tween-20, incubated with HRP antibody Anti Mouse Serum Albumin antibody (Abcam ab19195, Lot GR3242102-4; diluted 1:100,000) for 1 h, followed by 5 wash steps. Reaction was developed with TMB One Solution (Promega, G7431) and stopped with 2N H2SO4. Standard curves were generated with Mouse Albumin (Merck/Sigma, 126674-25MG). 450 nm absorbance was measured on an Epoch Microplate reader (BioTek) using GenS 1.10 software.
# At the end of the experiment kidneys were removed, embedded in paraffin and PAS (Periodic acid-Schiff) staining was performed. Histology was thoroughly evaluated and the amount of sclerotic glomeruli and protein casts was quantified.
# R version 4.0.2 was used for statistical analysis. Student's t-test was used for comparing UPCR and UACR values between samples from treated and control mice for each individual time point and to assess differences in histological parameters. Repeated measures ANOVA was performed to analyse the drug's impact on UPCR and UACR over time using the respective functions in the rstatix package (V0.6.0). ggplot2 (V3.3.2) and ggpubr (V0.4.0) packages were used for generating the graphical visualizations.
# In two independent experiments (Experiment 1 and 2), 34 female Balb/c mice were injected with 10.5 mg/kg adriamycin into the tail vein (see table 2). […] Spot urine was collected weekly, kidneys were harvested at sacrifice. 10.5 mg/kg Adriamycin were injected into the tail vein. […] Urine was collected and weight was measured weekly. The experiments lasted about 5 weeks.
smiles,measurement,setting,value
"COC(=O)[C@H](c1ccccc1Cl)N1CCc2sccc2C1 [Clopidogrel, (S)-Methyl-(2-chlorphenyl)-2-(6,7-dihydro-4H-thieno[3,2-c]pyridin-5-yl)acetate]","UPCR at 37 days after start, compared with Ctrl mice","[1]; FIG. 1, mice could recover from Adriamycin induced FSGS in this experiment",reduced to similar levels
same,"effect of drug administration on UPCR, repeated measures ANOVA across timepoints","[1]; adriamycin approx. 9 mg/kg, drug via pre-mixed chow, p=0.009 (drug)",significant
same,podocyte injury (podocytopathy) by electron microscopy,[2],significantly reduced podocyte injury
same,"glomerular sclerosis index (sclerotic glomeruli of all glomeruli), highest reached in any sample","[3]; PAS staining, untreated control group went up to 35%",≤ 4%
same,reduction of UPCR (urinary protein to creatinine ratio),"[3]; both experiments together, average across all time points, chow + 200 mg/kg Clopidogrel (~25-30 mg/kg mouse/day) from 48 h after adriamycin 10.5 mg/kg i.v., vs control mice",49%
same,reduction of UACR (urinary albumin to creatinine ratio),"[3]; both experiments together, average across all time points, chow + 200 mg/kg Clopidogrel, vs control mice",61%
same,average histopathological damage score,"[3]; clopidogrel-treated group, control average 2.67, p=0.038",0.86
same,severe disease (glomerular sclerosis),"[3]; histopathology, FIG. 8A, B",completely prevented severe disease
same,reduction of ADR-associated weight loss,"[3]; overall, both experiments, weight measured weekly, vs control mice",48%
same,"tubular ectasia, determined by protein cylinders in PAS staining","[3]; vs control group, FIG. 8C",strongly ameliorated
same,weight loss compared to control mice,[3]; weekly over the course of the experiments,less weight loss
